Experiments:
P. aeruginosa PAO1 = experiment: Fluorescence microscopy, penetration of bolalipid; format: cell-based, Pseudomonas aeruginosa; settings: 180 μM
Method: P. aeruginosa PAO1 was incubated with CM2 alone or in combination with tobramycin. A single colony of bacteria was collected from a Luria-Bertani (LB) agar plate and resuspended in 10 mL of LB broth overnight at 37°C, with shaking at 150 rpm. The following morning, a 2% (vol/vol) dilution was done in fresh LB broth, and the bacteria suspension was grown at 37°C with shaking at 150 rpm until it reached an OD600 of 0.3. The surface of microscopy SuperFrost glass slides (Thermo Fisher Scientific, Massachusetts, USA) was marked with a PAP pen, in order to design two square confined areas per glass slide, where the bacteria were deposited. One hundred microliters of bacterial suspension was transferred into sterile Eppendorf tubes and incubated with equal volumes of bolalipid suspension for 1 h. The bolalipid final concentration was 0.18 mM. The fluorescent Alexa Fluor 555 conjugate of wheat germ agglutinin (WGA) (Thermo Fisher Scientific) lectin membrane dye (10 μg/mL final concentration) was added to the suspension, and the bacteria were incubated for 45 min more. At the end of incubation, 100 μL was spotted in each half of the SuperFrost glass slides and incubated for 45 min more. Glass slides were then washed three times with phosphate-buffered saline (PBS) and left to dry for 5 min before addition of one drop of Fluoromount (Sigma-Aldrich, Germany) aqueous mounting medium. […]

[1] = tested on: Prevotella bivia NCTC 11156; experiment: Anaerobic broth microdilution MIC (BHI, 5% horse serum); format: cell-based; settings: NCTC11156, read-out: MIC
G. vaginalis KC2 = experiment: as above; format: cell-based, Gardnerella vaginalis; settings: Gardnerella vaginalis, read-out: MIC
[2] = tested on: Pseudomonas aeruginosa RP73; experiment: In vitro pharmacodynamic (PD) assay; settings: P. aeruginosa RP73; combination 2:1 (wt/wt)
Method: In vitro PD assays were performed with Pseudomonas aeruginosa RP73 cultured in Roswell Park Memorial Institute 1640 medium (RPMI) supplemented with 5% Mueller-Hinton broth (MHB) ([35]). Bacteria were cultured overnight in 10 mL of RPMI–5% MHB at 37°C and diluted just prior to plate inoculation to an OD600 of 0.002. Stock solutions of colistin or tobramycin were prepared in sterile MilliQ water at a concentration of 200× MIC. Octa-bola was prepared in methanol at 2,000× MIC and diluted in water to 200× MIC. A dilution series was made in the top row of a polypropylene 96-well plate from 200× MIC to 0.2× MIC in a volume of 100 μL, to which 100 μL of the bacterial suspension was added to have a total of 1 × 10^6 log-phase CFU in 200 μL. The first time zero sample was taken <30 s after addition of bacteria to the plate, with further samples taken at appropriate intervals thereafter. […] Fifteen microliters was removed from each well, diluted 1:1,000 in phosphate-buffered saline, and plated onto RPMI–5% MH agar plates. The plates were incubated at 37°C overnight for CFU counting.
CFU data were log10 transformed, and the bacterial net growth rate was determined from the increase or decrease in CFU during the time of exposure to the antibiotics as the coefficient of a linear regression of log10 CFU as a function of time. The intercept of the regression was fixed by forcing the regression lines through the first CFU measurement (0 min) at a given antimicrobial concentration. The pharmacodynamic function according to Regoes et al. ([36]) describes the relationship between bacterial net growth rate (ψ) and the concentration of an antimicrobial (a): ψmax − ([ψmax − ψmin][a/zMIC])^κ/([a/zMIC]^κ − [ψmin/ψmax]). Fitting this function to the net bacterial growth rates in OriginPro 2020 (OriginLab Corporation, Northampton, MA) generates the parameters ψmin and ψmax (minimum and maximum growth rates, respectively), zMIC (the pharmacodynamic MIC), and κ (a measure of the cooperativity). […]

Candida auris TGD1912 = experiment: Fluorescence microscopy, accumulation of bolalipid; format: cell-based; settings: 0.18 mM (approximately 54× the MIC), 30 min
Method: Candida auris cells were picked from a yeast extract-peptone-dextrose (YPD) agar plate and resuspended in 35 mL of sterile distilled water (dH2O). After resuspension, 150 μL of cells was inoculated in 100 mL of YPD broth overnight at 30°C with shaking at 130 rpm and grown to exponential phase (5 × 10^6 to 5 × 10^7 cells/mL). Cells (6 × 10^8) were washed in standard defined (SD) medium twice (pelleted at 1,500 × g for 5 min and resuspended in 10 mL SD medium [yeast nitrogen base without the amino acids D-glucose, methionine, adenine, histidine, tryptophan, uracil, leucine, and lysine]), followed by resuspension in 1 mL SD medium containing 0.18 mM Penta-bola, and incubated at 37°C for 30 min. After treatment with the Penta-bola, cells were pelleted and resuspended in Hanks’ balanced salt solution (HBSS) and 50 μg/mL CF594 concanavalin A (Biotium). After incubation at 37°C for 30 min, cells were washed once with HBSS and resuspended in 1 mL of HBSS. Polysine adhesion slides (Thermo Scientific) were prepared by spreading 20 μL of treated cells and allowing them to dry for 30 min before adding one drop of Fluoromount (Sigma-Aldrich, Germany) aqueous mounting medium. Fluorescence images were acquired using a Leica fluorescence microscope at ×100 magnification. […]

With `Nc1c2c([n+](CCCCCCCCCCCC[n+]3c4c(c(N)c5ccccc53)CCCC4)c3ccccc13)CCCC2` [12-bis-THA Cl2, 12,12′-(Dodecane-1,12-diyl)-bis-(9-amino-1,2,3,4-tetrahydroacridinium) chloride] the “bacterial integrity / accumulation of bolalipid” value (P. aeruginosa PAO1) was “the bacteria appeared intact and the bolalipid was concentrated within the cells”.
In the case of `Cc1cc(N)c2ccccc2[n+]1CCCCCCCCCC[n+]1c(C)cc(N)c2ccccc21` [Dequalinium, dequalinium chloride, reference compound], the MIC [1] is reported as 2 µg/mL and the MIC (G. vaginalis KC2) is reported as 4 µg/mL.
In the case of `Nc1c2c([n+](CCCCCCCCCCCC[n+]3c4c(c(N)c5ccccc53)CCCCCC4)c3ccccc13)CCCCCC2` [Octa-bola], the “bactericidal activity (minimum growth rate, ψmin)” value [2] is reported as “strongly bactericidal, albeit only at the highest concentration tested”.
In the case of `Nc1c2c([n+](CCCCCCCCCCCC[n+]3c4c(c(N)c5ccccc53)CCC4)c3ccccc13)CCC2` [Penta-bola], the “cell integrity / accumulation of bolalipid” value (Candida auris TGD1912) is reported as “the cells remained intact”.

Reference: article PMC9942557, “Bolaamphiphile Analogues of 12-bis-THA Cl2 Are Potent Antimicrobial Therapeutics with Distinct Mechanisms of Action against Bacterial, Mycobacterial, and Fungal Pathogens” (mSphere, 2022)
